Assay results: ChEMBL document CHEMBL1275325, “QSAR guided synthesis of simplified antiplasmodial analogs of naphthylisoquinoline alkaloids” (Eur J Med Chem, 2010); call rule not given here
pIC50: −log10 of the molar value.

Legend:
[1] = test system: Trypanosoma brucei rhodesiense; assay: Antitrypanosomal activity against Trypanosoma brucei rhodesiense STIB900; format: functional, organism-based; conditions: for pIC50: Trypanosoma brucei, STIB900, read-out: IC50
Plasmodium falciparum = assay: Antiplasmodial activity against Plasmodium falciparum K1; format: functional, organism-based
Trypanosoma cruzi = assay: Antitrypanosomal activity against clone C4 Trypanosoma cruzi Tulahuen expressing LacZ; format: functional, organism-based; conditions: for pIC50: Trypanosoma cruzi, Tulahuen, read-out: IC50
L6 = assay: Cytotoxicity against rat L6 cells; format: cell-based
[2] = test system: Trypanosoma brucei brucei; assay: Antitrypanosomal activity against Trypanosoma brucei brucei; format: functional, organism-based; conditions: for pIC50: Trypanosoma brucei, read-out: IC50
[3] = Selectivity index, ratio of IC50 for rat L6 cells to IC50 for Plasmodium falciparum K1; format: toxicity, cell-based; conditions: read-out: Ratio IC50
Leishmania donovani = assay: Antileishmanial activity against axenic amastigotes of Leishmania donovani; format: functional, organism-based; conditions: for pIC50: Leishmania donovani, read-out: IC50
Leishmania major = assay: Antileishmanial activity against promastigotes of Leishmania major; format: functional, organism-based; conditions: for pIC50: Leishmania major, read-out: IC50

| SMILES | pIC50 [1] | pIC50 (Plasmodium falciparum) | pIC50 (Trypanosoma cruzi) | pIC50 [2] | pIC50 (Leishmania donovani) | pIC50 (Leishmania major) | IC50 [1] | IC50 (Trypanosoma cruzi) | IC50 (Leishmania donovani) | IC50 [2] | IC50 (Leishmania major) | pIC50 (L6) | selectivity ratio [3] |
| --- | --- | --- | --- | --- | --- | --- | --- | --- | --- | --- | --- | --- | --- |
| COc1ccc(Br)c2c1C(C)=N[C@H](C)C2 | < 4.00 | < 4.72 | < 4.00 | – | < 4.00 | – | – | – | – | Not Active | Not Active | < 4.00 | – |
| COc1ccc(-c2ccccc2)c2c1C(C)=N[C@H](C)C2 | 5.19 | 5.73 | 4.33 | 4.83 | 4.13 | < 4.00 | – | – | – | – | – | 4.23 | – |
| CC1=N[C@H](C)Cc2c(-c3ccc(O)cc3)ccc(O)c21 | 4.27 | 5.00 | < 4.00 | – | < 4.00 | – | – | – | – | Not Active | Not Active | < 4.00 | – |
| COc1ccc(-c2cccc(Cl)c2)c2c1C(C)=N[C@H](C)C2 | 5.93 | 5.10 | 4.85 | – | 4.89 | – | – | – | – | Not Active | Not Active | 4.42 | – |
| COc1ccc(-c2cccc3ccccc23)c2c1C(C)=N[C@H](C)C2 | 5.40 | 5.16 | 4.80 | – | 4.84 | – | – | – | – | Not Active | Not Active | 4.46 | – |
| COc1ccc(-c2ccc(OC)c3ccccc23)c2c1C=NC(C)(C)C2 | – | 5.62 | – | 4.52 | 5.71 | 4.43 | Not Active | Not Active | – | – | – | 4.36 | – |
| Oc1ccc(-c2ccc(O)c3ccccc23)c2c1C=NCC2 | – | 5.46 | – | – | – | – | Not Active | Not Active | Not Active | Not Active | Not Active | 4.03 | – |
| COc1cccc2c(-c3ccc(O)c4c3CC(C)(C)N=C4)ccc(O)c12 | – | 5.77 | – | 4.47 | – | < 4.00 | Not Active | Not Active | Not Active | – | – | < 4.00 | – |
| COc1cccc2c(-c3ccc(O)c4c3CCN=C4)ccc(O)c12 | – | 5.70 | – | – | – | – | Not Active | Not Active | Not Active | Not Active | Not Active | 4.01 | – |
| COc1ccc(-c2ccc(C)cc2)c2c1C(C)=N[C@H](C)C2 | 5.23 | 5.60 | 4.71 | 4.69 | 4.45 | < 4.08 | – | – | – | – | – | < 4.00 | – |
| COc1ccc(-c2ccc(O)cc2)c2c1C(C)=N[C@H](C)C2 | 5.32 | 4.97 | 4.59 | – | 4.67 | – | – | – | – | Not Active | Not Active | < 4.00 | – |
| COc1ccc(-c2ccc(Cl)cc2)c2c1C(C)=N[C@H](C)C2 | 5.11 | 5.19 | 4.82 | – | 4.80 | – | – | – | – | Not Active | Not Active | 4.25 | – |
| COc1ccc(-c2ccc(C(F)(F)F)cc2)c2c1C(C)=N[C@H](C)C2 | 5.13 | 5.52 | < 4.00 | 4.98 | 4.74 | < 4.00 | – | – | – | – | – | < 4.00 | – |
| C[C@@H]1[C@H](O)[C@@H](C)/C=C/C=C/C=C/C=C/C=C/C=C/C=C/[C@H](O[C@@H]2O[C@H](C)[C@@H](O)[C@H](N)[C@@H]2O)C[C@@H]2O[C@](O)(C[C@@H](O)C[C@@H](O)[C@H](O)CC[C@@H](O)C[C@@H](O)CC(=O)O[C@H]1C)C[C@H](O)[C@H]2C(=O)O [AMPHOTERICIN B] | – | – | – | – | – | 5.60 | – | – | – | – | – | – | – |
| O=C(Cn1ccnc1[N+](=O)[O-])NCc1ccccc1 [BENZNIDAZOLE] | – | – | 5.70 | – | – | – | – | – | – | – | – | – | – |
| Nc1nc(N)nc(Nc2ccc([As]3SCC(CO)S3)cc2)n1 (centres undefined) [MELARSOPROL] | 8.15 | – | – | – | – | – | – | – | – | – | – | – | – |
| N=C(N)c1ccc(OCCCCCOc2ccc(C(=N)N)cc2)cc1 [PENTAMIDINE] | – | – | – | 8.52 | – | – | – | – | – | – | – | – | – |

Further compounds by rising pIC50 (Plasmodium falciparum), results first:

| pIC50 [1] | pIC50 (Plasmodium falciparum) | pIC50 (Trypanosoma cruzi) | pIC50 [2] | pIC50 (Leishmania donovani) | pIC50 (Leishmania major) | IC50 [1] | IC50 (Trypanosoma cruzi) | IC50 (Leishmania donovani) | IC50 [2] | IC50 (Leishmania major) | SMILES | pIC50 (L6) | selectivity ratio [3] |
| --- | --- | --- | --- | --- | --- | --- | --- | --- | --- | --- | --- | --- | --- |
| – | 5.77 | 4.96 | 4.58 | – | 4.33 | Not Active | – | Not Active | – | – | COc1ccc(-c2ccc(OC)c3ccccc23)c2c1C=NCC2 | 4.46 | – |
| – | 5.91 | – | – | – | – | Not Active | Not Active | Not Active | Not Active | Not Active | Oc1ccc(Br)c2c1C=NCC2 | < 4.00 | – |
| 5.35 | 5.93 | 4.68 | 5.00 | 4.67 | 4.55 | – | – | – | – | – | COc1ccc(-c2ccc3ccccc3c2)c2c1C(C)=N[C@H](C)C2 | 4.14 | – |
| 5.12 | 6.07 | 4.86 | 4.57 | 4.61 | 4.28 | – | – | – | – | – | CC1=N[C@H](C)Cc2c(-c3cccc(Cl)c3)ccc(O)c21 | 4.29 | – |
| 5.32 | 6.09 | 4.24 | 4.87 | < 4.00 | < 4.00 | – | – | – | – | – | CC1=N[C@H](C)Cc2c(-c3ccccc3)ccc(O)c21 | 4.28 | – |
| 4.96 | 6.12 | 4.80 | 5.56 | 4.57 | 4.87 | – | – | – | – | – | CC1=N[C@H](C)Cc2c(-c3cccc4ccccc34)ccc(O)c21 | 4.24 | – |
| – | 6.15 | – | < 4.00 | – | < 4.00 | Not Active | Not Active | Not Active | – | – | CC1(C)Cc2c(Br)ccc(O)c2C=N1 | < 4.00 | > 141 |
| – | 6.27 | – | < 4.40 | – | < 4.00 | Not Active | Not Active | Not Active | – | – | CC1=N[C@H](C)Cc2c(-c3ccc(Cl)cc3)ccc(O)c21 | < 4.00 | > 188 |
| 6.00 | 6.32 | 4.78 | 4.60 | 4.42 | 4.46 | – | – | – | – | – | CC1=N[C@H](C)Cc2c(-c3ccc4ccccc4c3)ccc(O)c21 | 4.14 | 152 |
| 4.83 | 6.34 | 4.72 | 4.80 | 4.46 | < 4.00 | – | – | – | – | – | CC1=N[C@H](C)Cc2c(-c3ccc(C(F)(F)F)cc3)ccc(O)c21 | 4.01 | 210 |
| 5.15 | 6.36 | 4.41 | 4.49 | 4.28 | < 4.07 | – | – | – | – | – | CC1=N[C@H](C)Cc2c(-c3ccc(C)cc3)ccc(O)c21 | < 4.00 | > 229 |
| 5.61 | 6.58 | – | – | – | – | – | Not Active | Not Active | Not Active | Not Active | COc1cccc2c(-c3ccc(O)c4c3CCNC4)ccc(O)c12 | 4.40 | 152 |
| 5.53 | 6.65 | – | – | – | – | – | Not Active | Not Active | Not Active | Not Active | COc1cccc2c(-c3ccc(O)c4c3CC(C)(C)NC4)ccc(O)c12 | 4.43 | 168 |
| – | 6.86 | – | – | – | – | Not Active | Not Active | Not Active | Not Active | Not Active | COc1cccc2c(-c3ccc(O)c4c3CC(C)(C)N=C4)ccc(OC(C)C)c12 | < 4.00 | > 725 |
| – | 6.92 | – | – | – | – | Not Active | Not Active | Not Active | Not Active | Not Active | COc1cccc2c(-c3ccc(O)c4c3CCN=C4)ccc(OC(C)C)c12 | 4.57 | 227 |
